Earlier results in US4806659A, “Tannin compounds” (Kabushiki Kaisha Tsumura Juntendo, priority 1985, dated 1989).

Details: known drugs, schizophrenia

Compound | sedative effect | anti-hallucination and -delution effects
COc1ccc2c(c1)N(C[C@H](C)CN(C)C)c1ccccc1S2 [Levomepromazine] | strong sedative effect | –
CN(C)CCCN1c2ccccc2Sc2ccc(Cl)cc21 [chlorpromazine] | strong sedative effect | –
OCCN1CCN(CCCN2c3ccccc3Sc3ccc(C(F)(F)F)cc32)CC1 [fluphenazine] | – | strong anti-hallucination and -delution effects
O=C(CCCN1CCC(O)(c2ccc(Cl)cc2)CC1)c1ccc(F)cc1 [haloperidol] | – | strong anti-hallucination and -delution effects
OCCN1CCN(CCCN2c3ccccc3Sc3ccc(Cl)cc32)CC1 [perphenazine] | – | strong anti-hallucination and -delution effects
CCN1CCCC1CNC(=O)c1cc(S(N)(=O)=O)ccc1OC (stereo not drawn) [sulpiride] | mild sedative effect | –
